# Data from patent publication US9333199B2, “Methods of treatment of histamine H-4 receptor-related pruritus associated with nerve disorders” (BRIDGE PHARMA, INC., priority 2013, dated 2016).
# Tests used:
# [1] = tested on: histamine-induced pruritus; assay: Antipruritic activity, histamine-induced pruritus in mice; type: in vivo, CD-1 mice; details: for inhibition of pruritus following histamine injections (in words): intradermal histamine, Example 5, JNJ7777120 and desloratadine 20 mg/kg oral
# Protocol: Antipruritic effects were tested in vivo in CD-1 mice, females, 10-12 weeks, according to methods known in the art. The hair was clipped over the rostral part of the back at the interscapular level of the mice one day before the dosing. Before the testing, the mice were placed in individual clear plastic cages for at least one hour for acclimation. After fasting for 1.5 hours, the animals were dosed orally with the test article, dissolved in a vehicle consisting of 1% methylcellulose/water, 10 mL/kg body weight. Sixty minutes after the oral dosing, an intradermal injection of histamine (300 nmol in 20 μl phosphate buffered saline (PBS), pH 7.4) was administered. Immediately after the histamine injection, the bouts of scratches were counted for 40 min. Scratching induced by the histamine vehicle PBS served as control.
# Norketotifen was tested in escalating doses and in a supramaximal dose of 100 mg/kg.
# [2] = Repeat-dose pharmacological and toxicological studies in dogs; type: in vivo; details: daily doses up to 20 mg/kg/day
# Excerpt: Dogs vomit spontaneously for a variety of benign reasons—to expel unwanted content from their stomach, as a result of gastric irritation or in response to colonic irritation. In recent toxicological studies in dogs of various drugs, including isomeric norketotifen, vomiting occurred in both control groups and drug groups and may have been treatment-related, rather than drug-related. The unexpectedly low systemic toxicity of norketotifen and the isomers thereof is believed to be due to low systemic (plasma) concentrations, caused by the fact that norketotifen and the isomers thereof are not circulating in plasma but are accumulating in the skin, which is the largest organ in the body.
# [3] = Sedation in human subjects; type: in vivo; details: doses of 5 mg and 10 mg, humans
# [4] = tested on: histamine-induced pruritus; details: intradermal histamine, humans and mice; not tested in Example 5; cited from earlier work
Structure (SMILES),inhibition of pruritus following histamine injections (in words) [1],"inhibition of histamine-induced pruritus at supramaximal dose ([1]; 100 mg/kg oral, histamine 300 nmol intradermal, bouts counted 40 min)","inhibition of histamine-induced pruritus, escalating doses ([1]; escalating oral doses, histamine 300 nmol intradermal)","sedation or other adverse events, chronic dosing [2]",sedation in human subjects [3],"inhibition of pruritus following histamine injections (in words), general statement [4]"
"CN1CCN(C(=O)c2cc3cc(Cl)ccc3[nH]2)CC1 [JNJ7777120, reference compound]",potently inhibited,,,,,
"O=C1Cc2ccccc2C(=C2CCNCC2)c2ccsc21 [Norketotifen, norketotifen]",potently inhibited,complete inhibition,dose-dependently inhibiting histamine-induced pruritus,without causing sedation or other adverse events,do not produce sedation,
CC(C)(C(=O)O)c1ccc(C(O)CCCN2CCC(C(O)(c3ccccc3)c3ccccc3)CC2)cc1 (stereo not shown) [fexofenadine],,,,,,not inhibited
